Active and inactive are the calls of the source. No cut-off for these calls is given here.
What was measured:
[1] = Cytotoxicity against human non-small cell lung cancer cells after 48 hrs by SRB assay; format: functional; conditions: Cancer cell lines; for CC50: read-out: LC50 (the source's name)
[2] = Cytotoxicity against human prostate cancer cells after 48 hrs by SRB assay; format: functional; conditions: Cancer cell lines
[3] = Cytotoxicity against human breast cancer cells after 48 hrs by SRB assay; format: functional; conditions: Cancer cell lines
[4] = Cytotoxicity against human renal cancer cells after 48 hrs by SRB assay; format: functional; conditions: Cancer cell lines
[5] = Cytotoxicity against human melanoma cells after 48 hrs by SRB assay; format: functional; conditions: Melanoma cell; for CC50: read-out: LC50 (the source's name)
[6] = Cytotoxicity against human ovarian cancer cells after 48 hrs by SRB assay; format: functional; conditions: Cancer cell lines
[7] = Cytotoxicity against human CNS cancer cells after 48 hrs by SRB assay; format: functional; conditions: Cancer cell lines
[8] = Cytotoxicity against human colon cancer cells after 48 hrs by SRB assay; format: functional; conditions: Cancer cell lines
[9] = Cytotoxicity against human leukemia cells after 48 hrs by SRB assay; format: functional; conditions: Leukemia cell; for CC50: read-out: LC50 (the source's name)
SK-MEL-5 = experiment: Cytotoxicity against human SK-MEL-5 cells assessed as cell growth at 10 uM after 48 hrs by SRB assay; format: functional; conditions: SK-MEL-5, 48 h, read-out: Activity
OVCAR-4 = experiment: Cytotoxicity against human OVCAR4 cells assessed as cell growth at 10 uM after 48 hrs by SRB assay; format: functional; conditions: OVCAR-4, 48 h, read-out: Activity
CCRF-CEM = experiment: Cytotoxicity against human CCRF-CEM cells assessed as cell growth at 10 uM after 48 hrs by SRB assay; format: functional; conditions: read-out: Activity
[10] = Toxicity in mouse; format: organism-based; conditions: in vivo
U-251 = experiment: Cytotoxicity against human U251 cells assessed as cell growth at 10 uM after 48 hrs by SRB assay; format: functional; conditions: U-251, 48 h, read-out: Activity
Mus musculus = experiment: Antitumor activity in ip dosed athymic nude mouse hollow fiber model assessed as reduction of viable cell mass; format: functional, organism-based
OVCAR-3 = experiment: Cytotoxicity against human OVCAR3 cells assessed as cell growth at 10 uM after 48 hrs by SRB assay; format: functional; conditions: OVCAR-3, 48 h, read-out: Activity

Compound	GI50 [1]	TGI [1]	CC50 [1]	GI50 [2]	TGI [2]	GI50 [3]	LC50 (concentration causing 50% net cell kill) [3]	TGI [3]	GI50 [4]	LC50 [4]	TGI [4]	GI50 [5]	TGI [5]	CC50 [5]	GI50 [6]	LC50 (concentration causing 50% net cell kill) [6]	TGI [6]	GI50 [7]	LC50 (concentration giving 50% net cell kill) [7]	TGI [7]	other results
COc1ccc(C2=NN(C3=NC(=O)/C(=C4\C(=O)Nc5ccc(Br)cc54)S3)C(c3ccc(Cl)cc3)C2)cc1 (configuration not stated)	0.12 µM	0.34 µM	12.4 µM	0.18 µM	1.01 µM	0.14 µM	19.2 µM	0.4 µM	0.14 µM	4 µM	0.37 µM	0.16 µM	0.34 µM	0.99 µM	0.19 µM	29.8 µM	14.7 µM	0.12 µM	15.7 µM	1.48 µM	LC50 [2]: 100 µM; GI50 [8]: 0.13 µM; LC50 (concentration lethal to 50% of cells) [8]: 16.1 µM; TGI [8]: 7.44 µM; GI50 [9]: 0.19 µM; TGI [9]: 14 µM; CC50 [9]: 100 µM; growth at 10 µM (SK-MEL-5): -56.4%
O=C1Nc2ccc(Br)cc2C1n1nc(-c2ccc3ccccc3c2)cc1-c1ccc(Cl)cc1 (configuration not stated)	3.31 µM	10 µM	34.5 µM	2.57 µM	8.89 µM	4.3 µM	62.1 µM	14.3 µM	2.5 µM	27.2 µM	7.66 µM	6.53 µM	22.4 µM	56.8 µM	3.09 µM	33.2 µM	9.85 µM	3.18 µM	33.3 µM	10.5 µM	LC50 [2]: 34.4 µM; GI50 [8]: 4.33 µM; LC50 (concentration lethal to 50% of cells) [8]: 51.1 µM; TGI [8]: 15 µM; GI50 [9]: 10.4 µM; TGI [9]: 15.2 µM; CC50 [9]: 79.2 µM; growth at 10 µM (OVCAR-4): 58.5%
COc1ccc(-c2cc(-c3ccc(Cl)cc3)n(C3C(=O)Nc4ccc(Cl)cc43)n2)cc1 (configuration not stated)	4.37 µM	23.2 µM	59.8 µM	6.49 µM	20.3 µM	6.29 µM	47.6 µM	17.8 µM	3.75 µM	42.4 µM	13.2 µM	9.4 µM	46.7 µM	76.4 µM	3.68 µM	52.3 µM	14.7 µM	3.94 µM	42.2 µM	14.4 µM	LC50 [2]: 62.4 µM; GI50 [8]: 6.15 µM; LC50 (concentration lethal to 50% of cells) [8]: 69.4 µM; TGI [8]: 28.6 µM; GI50 [9]: 27.9 µM; TGI [9]: 79.2 µM; CC50 [9]: 100 µM; growth at 10 µM (CCRF-CEM): 50.8%
O=C1N=C(N2N=C(c3ccccc3)CC2c2ccccc2O)S/C1=C1/C(=O)Nc2ccc(Br)cc21 (configuration not stated)	0.24 µM	0.67 µM	7.24 µM	0.29 µM	0.93 µM	0.26 µM	3.59 µM	0.8 µM	0.23 µM	2.55 µM	0.63 µM	0.23 µM	0.66 µM	2.43 µM	0.28 µM	19 µM	0.94 µM	0.24 µM	4.12 µM	0.72 µM	LC50 [2]: 7.68 µM; GI50 [8]: 0.21 µM; LC50 (concentration lethal to 50% of cells) [8]: 1.67 µM; TGI [8]: 0.46 µM; GI50 [9]: 0.27 µM; TGI [9]: 1.05 µM; CC50 [9]: 9.49 µM; growth at 10 µM (SK-MEL-5): -53.9%
O=C(O)CN1C(=O)C(n2nc(-c3ccc4ccccc4c3)cc2-c2ccc(Cl)cc2)c2ccccc21 (configuration not stated)																					growth at 10 µM (CCRF-CEM): 103%
COc1ccc(-c2cc(-c3ccc4ccccc4c3)nn2C2C(=O)Nc3ccccc32)cc1 (configuration not stated)																					growth at 10 µM (OVCAR-4): 91.5%
COc1ccc(-c2cc(-c3ccc(Cl)cc3)n(C3C(=O)Nc4ccccc43)n2)cc1 (configuration not stated)																					growth at 10 µM (CCRF-CEM): 75.6%
CN(C)c1ccc(C2CC(c3ccccc3)=NN2C2=NC(=O)/C(=C3\C(=O)Nc4ccccc43)S2)cc1 (configuration not stated)	7.42 µM	25.2 µM	49 µM	0.27 µM	34 µM	5.26 µM	57.3 µM	20.2 µM	6.37 µM	43 µM	18.8 µM	6.9 µM	29.4 µM	43.9 µM	1.22 µM	47.1 µM	39.7 µM	1.11 µM	41.6 µM	3.24 µM	MTD [10]: > 400 mg/kg; LC50 [2]: 41.4 µM; GI50 [8]: 2.55 µM; LC50 (concentration lethal to 50% of cells) [8]: 40.4 µM; TGI [8]: 35.3 µM; GI50 [9]: 33.9 µM; TGI [9]: 45.6 µM; CC50 [9]: 94.8 µM; growth at 10 µM (U-251): -39.6%; Activity (Mus musculus): inactive
COc1ccc(C2CC(c3ccccc3)=NN2C2=NC(=O)/C(=C3\C(=O)Nc4ccccc43)S2)cc1 (configuration not stated)	2.38 µM	6.04 µM	70.8 µM	1.52 µM	3.35 µM	2.02 µM	39 µM	4.58 µM	2.01 µM	34.3 µM	4.27 µM	2 µM	4.51 µM	38 µM	2.3 µM	71.1 µM	19 µM	1.62 µM	7.39 µM	3.45 µM	LC50 [2]: 7.37 µM; GI50 [8]: 1.81 µM; LC50 (concentration lethal to 50% of cells) [8]: 32 µM; TGI [8]: 4.39 µM; GI50 [9]: 1.64 µM; TGI [9]: 20.8 µM; CC50 [9]: 93 µM; growth at 10 µM (OVCAR-3): -51.4%
CN(C)c1ccc(C2CC(c3ccccc3)=NN2C2=NC(=O)/C(=C3\C(=O)Nc4ccc(Cl)cc43)S2)cc1 (configuration not stated)	0.21 µM	0.51 µM	37.9 µM	0.25 µM	0.69 µM	0.22 µM	2.32 µM	0.53 µM	0.19 µM	15.3 µM	0.43 µM	0.26 µM	0.57 µM	2.16 µM	0.24 µM	48.8 µM	0.62 µM	0.19 µM	1.63 µM	0.43 µM	LC50 [2]: 12.8 µM; GI50 [8]: 0.19 µM; LC50 (concentration lethal to 50% of cells) [8]: 16.5 µM; TGI [8]: 0.41 µM; GI50 [9]: 0.34 µM; TGI [9]: 3.11 µM; CC50 [9]: 100 µM; growth at 10 µM (SK-MEL-5): -52.9%
O=C1N=C(N2N=C(c3ccccc3)CC2c2ccc(Cl)cc2)S/C1=C1/C(=O)Nc2ccccc21 (configuration not stated)	0.23 µM	6.29 µM	30 µM	0.25 µM	0.85 µM	0.32 µM	39.4 µM	0.91 µM	0.27 µM	22.1 µM	0.85 µM	0.28 µM	0.54 µM	1 µM	0.23 µM	26.7 µM	0.65 µM	0.19 µM	2.07 µM	0.5 µM	GI50 [8]: 0.19 µM; LC50 (concentration lethal to 50% of cells) [8]: 0.81 µM; TGI [8]: 0.39 µM; GI50 [9]: 0.37 µM; TGI [9]: 70.8 µM; CC50 [9]: 100 µM; growth at 10 µM (SK-MEL-5): -56.9%
O=C1N=C(N2N=C(c3ccc4ccccc4c3)CC2c2ccc(Cl)cc2)S/C1=C1/C(=O)Nc2ccccc21 (configuration not stated)	0.46 µM	20.9 µM	100 µM	0.4 µM	50.7 µM	0.74 µM	91.7 µM	38.3 µM	0.4 µM	75.5 µM	42.1 µM	0.35 µM	24.7 µM	83 µM	15.4 µM	100 µM	56.1 µM	8.8 µM	75.9 µM	27.3 µM	MTD [10]: > 400 mg/kg; LC50 [2]: 100 µM; GI50 [8]: 0.53 µM; LC50 (concentration lethal to 50% of cells) [8]: 83.8 µM; TGI [8]: 70.3 µM; GI50 [9]: 19.1 µM; TGI [9]: 71.6 µM; CC50 [9]: 93.1 µM; growth at 10 µM (U-251): -25.1%; Activity (Mus musculus): inactive
O=C(O)CN1C(=O)C(n2nc(-c3ccccc3)cc2-c2ccc(Cl)cc2)c2ccccc21 (configuration not stated)																					growth at 10 µM (CCRF-CEM): 97.7%
COc1ccc(-c2cc(-c3ccc(Cl)cc3)n(C3C(=O)Nc4ccc(Br)cc43)n2)cc1 (configuration not stated)	7.53 µM	30 µM	58.6 µM	7.65 µM	22.1 µM	8.1 µM	65.8 µM	24.6 µM	9.2 µM	62.1 µM	32.3 µM	13.2 µM	49.3 µM	81.1 µM	9.75 µM	64.8 µM	28.7 µM	5.48 µM	46.5 µM	16.7 µM	LC50 [2]: 61.2 µM; GI50 [8]: 7.2 µM; LC50 (concentration lethal to 50% of cells) [8]: 78.8 µM; TGI [8]: 36.3 µM; GI50 [9]: 12.3 µM; TGI [9]: 67 µM; CC50 [9]: 100 µM; growth at 10 µM (CCRF-CEM): 58.6%
